From patent US9308262B2, “Pharmaceutical composition for administration to nails” (NOVALIQ GMBH, priority 2011, dated 2016)

Assay: Penetration of drug from SFA-based carrier into excised human toe nails
Format: in vitro ADME
Conditions: for depth below the nail surface at which significant tacrolimus concentrations were found: 1 mg/mL tacrolimus in F6H8 with 3.8 wt.-% ethanol, 1,000 min, 40 μm slices
Method: Tacrolimus was dissolved in a liquid carrier comprising F6H8 and 3.8 wt.-% ethanol to obtain a clear solution having a tacrolimus concentration of 1 mg/mL. The composition was used to evaluate the penetration of tacrolimus from an SFA-based carrier into human nails.
Excised human toe nails were obtained and washed in isotonic sodium chloride solution. For each nail, a filter membrane of 16 mm in diameter (2.01 cm^2) was loaded with 30 μL of the test solution, placed onto the nail and incubated for 1,000 min. At the end of the period, the remaining amount of the test solution in the filter and on the nail was collected. From each nail, punch biopsies of 5 mm in diameter (0.1963 cm^2) were obtained. The punch biopsies were frozen and microtomised at −40° C. into 20 horizontal slices of 40 μm thickness. Each slice was extracted and analysed for tacrolimus by HPLC-MS, as were the collected amounts of non-permeated formulation.
The experiment of Example 1 was repeated, except that a solution of ciclopiroxolamine was used instead of a tacrolimus solution. The test composition contained 1% (w/v) of ciclopiroxolamine dissolved in a vehicle of F6H8 and ethanol (85/15 wt.-%).

## Cc1cc(C2CCCCC2)n(O)c(=O)c1 [ciclopiroxolamine]
1% (w/v) ciclopiroxolamine in F6H8 and ethanol (85/15 wt.-%), 1,000 min
  depth distribution of ciclopiroxolamine in the nail matrix: Significant amounts of drug were found throughout the depth of the nail matrix
1% (w/v) ciclopiroxolamine in F6H8 and ethanol (85/15 wt.-%), 1,000 min incubation
  fraction of the administered amount of ciclopiroxolamine found in the nail matrix: 49.5%

## C=CC[C@@H]1/C=C(\C)C[C@H](C)C[C@H](OC)[C@H]2O[C@@](O)(C(=O)C(=O)N3CCCC[C@H]3C(=O)O[C@H](/C(C)=C/[C@@H]3CC[C@@H](O)[C@H](OC)C3)[C@H](C)[C@@H](O)CC1=O)[C@H](C)C[C@@H]2OC [tacrolimus]
  depth below the nail surface at which significant tacrolimus concentrations were found: 400 μm
Listed as Tacrolimus
  depth below the nail surface at which significant tacrolimus concentrations were found: ≥ 400 μm
30 μL of 1 mg/mL tacrolimus solution in F6H8 with 3.8 wt.-% ethanol, 1,000 min incubation, HPLC-MS
  total amount of tacrolimus found in the nails, relative to the administered dose: approx. 9%
